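Interpolation was linear, between the two tested concentrations surrounding the appropriate level; five concentrations were tested over 48 hours in 96-well plates. GI50: concentration for 50% inhibition of growth.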 Active and inactive are the calls of the source. Rule as the data show it: active = GI50 up to about 1.1 µM and inactive = higher. Non-standard residues stand in square brackets, D forms with d. Residues, ends and D or L forms follow the SMILES beside them. ξ: configuration not given here. *: point of attachment. NMeY = CN[C@@H](Cc1ccc(O)cc1)C(=O)O; Cbz = O=C(OCc1ccccc1)*; ξA = CC(N)C(=O)O
Experiments:
Test in all cases: DTP human tumour cell line panel, 48 h
SK-MEL-5 = system: SK-MEL-5
NCI-H522 = system: NCI-H522
NCI/ADR-RES = system: NCI/ADR-RES
SK-MEL-28 = system: SK-MEL-28
Malme-3M = system: Malme-3M
HCC 2998 = system: HCC 2998
HCT-116 = system: HCT-116
A498 = system: A498
T47D = system: T47D
CCRF-CEM = system: CCRF-CEM
Hs-578T = system: Hs-578T
OVCAR-5 = system: OVCAR-5
SF-295 = system: SF-295
RPMI-8226 = system: RPMI-8226
MOLT-4 = system: MOLT-4
U-251 = system: U-251
IGROV-1 = system: IGROV-1
TK-10 = system: TK-10
MDA-MB-231 = system: MDA-MB-231
SK-MEL-2 = system: SK-MEL-2

Structure (SMILES): OCCSCc1ccccc1
- GI50 (SK-MEL-5): > 100 µM (inactive)
- GI50 (NCI-H522): > 100 µM (inactive)
- GI50 (NCI/ADR-RES): > 100 µM (inactive)
- GI50 (SK-MEL-28): > 100 µM (inactive)
- GI50 (Malme-3M): > 100 µM (inactive)
- GI50 (HCC 2998): > 100 µM (inactive)
- GI50 (HCT-116): > 100 µM (inactive)
- GI50 (A498): > 100 µM (inactive)
- GI50 (T47D): > 100 µM (inactive)
- GI50 (CCRF-CEM): > 100 µM (inactive)
- GI50 (Hs-578T): > 100 µM (inactive)
- GI50 (OVCAR-5): > 100 µM (inactive)
- GI50 (SF-295): > 100 µM (inactive)
- GI50 (RPMI-8226): > 100 µM (inactive)
- GI50 (MOLT-4): > 100 µM (inactive)
- GI50 (U-251): > 100 µM (inactive)
- GI50 (IGROV-1): > 100 µM (inactive)
- GI50 (TK-10): > 100 µM (inactive)
- GI50 (MDA-MB-231): > 100 µM (inactive)
- GI50 (SK-MEL-2): > 100 µM (inactive)

Structure (SMILES): CCCCCCCCCCCCCCCCCCNc1ccn(C2OC(CO)C(OP(=O)(O)OCC(COP(=O)(O)OCC3OC(n4cc(F)c(NCCCCCCCCCCCCCCCCCC)nc4=O)CC3O)OC(=O)CCCCCCCCCCCCCCC)C2O)c(=O)n1 (stereo not given)
- GI50 (SK-MEL-5): > 100 µM (inactive)
- GI50 (NCI-H522): > 100 µM (inactive)
- GI50 (NCI/ADR-RES): > 100 µM (inactive)
- GI50 (SK-MEL-28): > 100 µM (inactive)
- GI50 (Malme-3M): > 100 µM (inactive)
- GI50 (HCC 2998): > 100 µM (inactive)
- GI50 (HCT-116): > 100 µM (inactive)
- GI50 (A498): > 100 µM (inactive)
- GI50 (T47D): > 100 µM (inactive)
- GI50 (CCRF-CEM): 95.3 µM (inactive)
- GI50 (Hs-578T): > 100 µM (inactive)
- GI50 (OVCAR-5): > 100 µM (inactive)
- GI50 (SF-295): > 100 µM (inactive)
- GI50 (RPMI-8226): > 100 µM (inactive)
- GI50 (MOLT-4): > 100 µM (inactive)
- GI50 (U-251): > 100 µM (inactive)
- GI50 (IGROV-1): > 100 µM (inactive)
- GI50 (TK-10): > 100 µM (inactive)
- GI50 (MDA-MB-231): > 100 µM (inactive)
- GI50 (SK-MEL-2): > 100 µM (inactive)

Structure (SMILES): CCOC(=O)Cc1nc2c(O)ncnc2n1C1OC(COC(C)=O)C(OC(C)=O)C1OC(C)=O (stereo not given)
- GI50 (SK-MEL-5): > 100 µM (inactive)
- GI50 (NCI-H522): > 100 µM (inactive)
- GI50 (NCI/ADR-RES): > 100 µM (inactive)
- GI50 (SK-MEL-28): > 100 µM (inactive)
- GI50 (Malme-3M): > 100 µM (inactive)
- GI50 (HCC 2998): > 100 µM (inactive)
- GI50 (HCT-116): > 100 µM (inactive)
- GI50 (A498): > 100 µM (inactive)
- GI50 (T47D): > 100 µM (inactive)
- GI50 (CCRF-CEM): > 100 µM (inactive)
- GI50 (Hs-578T): > 100 µM (inactive)
- GI50 (OVCAR-5): > 100 µM (inactive)
- GI50 (SF-295): > 100 µM (inactive)
- GI50 (RPMI-8226): > 100 µM (inactive)
- GI50 (MOLT-4): > 100 µM (inactive)
- GI50 (U-251): > 100 µM (inactive)
- GI50 (IGROV-1): > 100 µM (inactive)
- GI50 (TK-10): > 100 µM (inactive)
- GI50 (MDA-MB-231): > 100 µM (inactive)
- GI50 (SK-MEL-2): > 100 µM (inactive)

Structure (SMILES): CC(C)(C)C(=O)CC1(O)C=C(O)C(O)(CC(=O)C(C)(C)C)O1 (stereo not given)
- GI50 (SK-MEL-5): 21.2 µM (inactive)
- GI50 (NCI-H522): 20.4 µM (inactive)
- GI50 (NCI/ADR-RES): 20.9 µM (inactive)
- GI50 (SK-MEL-28): 31.6 µM (inactive)
- GI50 (Malme-3M): 86.9 µM (inactive)
- GI50 (HCC 2998): > 100 µM (inactive)
- GI50 (HCT-116): 4.71 µM (inactive)
- GI50 (A498): > 100 µM (inactive)
- GI50 (T47D): > 100 µM (inactive)
- GI50 (CCRF-CEM): 6.46 µM (inactive)
- GI50 (Hs-578T): 35.2 µM (inactive)
- GI50 (OVCAR-5): > 100 µM (inactive)
- GI50 (SF-295): 48.5 µM (inactive)
- GI50 (RPMI-8226): 19.7 µM (inactive)
- GI50 (MOLT-4): 8.51 µM (inactive)
- GI50 (U-251): 36.8 µM (inactive)
- GI50 (IGROV-1): 7.13 µM (inactive)
- GI50 (TK-10): 82.2 µM (inactive)
- GI50 (MDA-MB-231): 55 µM (inactive)
- GI50 (SK-MEL-2): 38.7 µM (inactive)

Structure (SMILES): C=C(CN(CC)CC)C1(c2ccccc2)CC2(CCCC2)C(=O)O1 (stereo not given)
- GI50 (SK-MEL-5): 68.4 µM (inactive)
- GI50 (NCI-H522): 35 µM (inactive)
- GI50 (NCI/ADR-RES): 11.1 µM (inactive)
- GI50 (SK-MEL-28): > 100 µM (inactive)
- GI50 (Malme-3M): > 100 µM (inactive)
- GI50 (HCC 2998): > 100 µM (inactive)
- GI50 (HCT-116): 38.3 µM (inactive)
- GI50 (A498): > 100 µM (inactive)
- GI50 (T47D): > 100 µM (inactive)
- GI50 (CCRF-CEM): > 100 µM (inactive)
- GI50 (Hs-578T): > 100 µM (inactive)
- GI50 (OVCAR-5): > 100 µM (inactive)
- GI50 (SF-295): > 100 µM (inactive)
- GI50 (RPMI-8226): 76.2 µM (inactive)
- GI50 (MOLT-4): 53.1 µM (inactive)
- GI50 (U-251): > 100 µM (inactive)
- GI50 (IGROV-1): > 100 µM (inactive)
- GI50 (TK-10): > 100 µM (inactive)
- GI50 (MDA-MB-231): > 100 µM (inactive)
- GI50 (SK-MEL-2): > 100 µM (inactive)

Structure (SMILES): COc1ccc(C[C@@H](C(=O)NCC(N)=O)N(C)C(=O)[C@@H]2CCCN2C(=O)[C@H](CC(C)C)NC(=O)C(C)NC(=O)OCc2ccccc2)cc1 (stereo not given in full) (Cbz-[ξA]LP[NMeY](Me)G-NH2)
- GI50 (SK-MEL-5): > 100 µM (inactive)
- GI50 (NCI-H522): > 100 µM (inactive)
- GI50 (NCI/ADR-RES): > 100 µM (inactive)
- GI50 (SK-MEL-28): > 100 µM (inactive)
- GI50 (Malme-3M): > 100 µM (inactive)
- GI50 (HCC 2998): > 100 µM (inactive)
- GI50 (HCT-116): > 100 µM (inactive)
- GI50 (A498): > 100 µM (inactive)
- GI50 (T47D): > 100 µM (inactive)
- GI50 (CCRF-CEM): > 100 µM (inactive)
- GI50 (Hs-578T): > 100 µM (inactive)
- GI50 (OVCAR-5): > 100 µM (inactive)
- GI50 (SF-295): > 100 µM (inactive)
- GI50 (RPMI-8226): > 100 µM (inactive)
- GI50 (MOLT-4): > 100 µM (inactive)
- GI50 (U-251): > 100 µM (inactive)
- GI50 (IGROV-1): > 100 µM (inactive)
- GI50 (TK-10): > 100 µM (inactive)
- GI50 (MDA-MB-231): > 100 µM (inactive)
- GI50 (SK-MEL-2): > 100 µM (inactive)

Structure (SMILES): Cc1nc(N)nc(N)c1-c1ccc(Cl)c(Cl)c1 [METOPRINE]
- GI50 (SK-MEL-5): 0.409 µM (active)
- GI50 (NCI-H522): 0.785 µM (active)
- GI50 (NCI/ADR-RES): 1.1 µM (active)
- GI50 (SK-MEL-28): 4.6 µM (inactive)
- GI50 (Malme-3M): 2.91 µM (inactive)
- GI50 (HCC 2998): 2.91 µM (inactive)
- GI50 (HCT-116): 0.0399 µM (active)
- GI50 (A498): 21.6 µM (inactive)
- GI50 (T47D): 16.9 µM (inactive)
- GI50 (CCRF-CEM): 0.432 µM (active)
- GI50 (Hs-578T): 4.72 µM (inactive)
- GI50 (OVCAR-5): 14.2 µM (inactive)
- GI50 (SF-295): 0.411 µM (active)
- GI50 (RPMI-8226): 6.28 µM (inactive)
- GI50 (MOLT-4): 0.607 µM (active)
- GI50 (U-251): 0.635 µM (active)
- GI50 (IGROV-1): 2.54 µM (inactive)
- GI50 (TK-10): 9.2 µM (inactive)
- GI50 (MDA-MB-231): 0.466 µM (active)
- GI50 (SK-MEL-2): 30.8 µM (inactive)

From ChEMBL document CHEMBL1201862, “PubChem BioAssay data set” (2004)
